Measurements as given in patent US20070244146A1, “Thienopyridines as IKK inhibitors” (priority 2004, published 2007).

Target: T1, recombinant human IKKb (Homo sapiens, UniProt O14920)
T1 sequence (O14920 1-756): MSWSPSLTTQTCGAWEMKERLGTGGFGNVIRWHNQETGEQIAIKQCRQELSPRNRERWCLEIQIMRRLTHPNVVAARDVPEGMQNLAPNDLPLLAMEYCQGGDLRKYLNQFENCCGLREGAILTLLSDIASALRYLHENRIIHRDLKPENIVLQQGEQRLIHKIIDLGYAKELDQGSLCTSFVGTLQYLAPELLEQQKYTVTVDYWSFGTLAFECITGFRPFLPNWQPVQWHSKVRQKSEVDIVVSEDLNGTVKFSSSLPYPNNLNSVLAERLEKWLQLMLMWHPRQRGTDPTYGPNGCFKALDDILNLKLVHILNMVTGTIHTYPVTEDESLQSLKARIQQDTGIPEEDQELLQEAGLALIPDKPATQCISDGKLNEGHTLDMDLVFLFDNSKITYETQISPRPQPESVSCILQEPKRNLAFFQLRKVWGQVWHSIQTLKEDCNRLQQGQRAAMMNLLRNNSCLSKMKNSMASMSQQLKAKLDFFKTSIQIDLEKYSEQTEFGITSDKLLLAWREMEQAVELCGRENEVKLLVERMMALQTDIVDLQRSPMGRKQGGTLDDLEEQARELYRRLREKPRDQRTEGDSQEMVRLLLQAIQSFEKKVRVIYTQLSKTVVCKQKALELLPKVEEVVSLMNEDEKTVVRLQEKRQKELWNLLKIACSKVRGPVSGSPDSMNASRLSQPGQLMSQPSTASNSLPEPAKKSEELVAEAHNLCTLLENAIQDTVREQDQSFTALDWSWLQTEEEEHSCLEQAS
Assay: IKK kinase assay: incorporation of radiolabeled ATP into biotin-peptide substrate derived from IkB-alpha
Format: biochemical
Conditions: purified recombinant human IKKb 25 nM, ATP 10 μM, 30 min at 30° C.
Method: This example describes an assay that is useful in evaluating and selecting a compound that modulates IKK. The assay measures the incorporation of radiolabeled ^3P gATP into the Biotin-peptide kinase substrate, derived from the IkB-alpha sequence.
In a 40 ul volume, 26 ul of ADB diluted, purified recombinant human IKKb [25 nM] was mixed with 4 ul 10× concentration of test compounds, [usually 100 uM-0.003 uM], [10%] DMSO and incubated for 10 minutes at room temperature. The kinase reaction was initiated by the addition of 10 ul 4× substrate cocktail containing the peptide substrate [0 or 30 μM] ATP [10 μM], and ^3PgATP [2 uCi/r×n]. After 30 minutes of incubation at 30° C., the reaction was terminated by the transfer of 25 ul reaction sample to a phosphocellulose membrane/plate containing 150 ul 0.75% phosphoric acid.
On the following day, the free radionucleotides in the phosphocellulose membrane were washed under vacuum with 3×200 ul of 0.75% phosphoric acid. After the last wash membrane/plates were transferred to an adoptor plate and 70 ul of scintillation cocktail was added to each well. After four hours, the amount of radioactivity for each well was counted in a top counter.

IC50: < 1000 nM
Compound: N#Cc1cccc(-c2cc3c(N)ncc(C(N)=O)c3s2)c1 [Compound 12, 4-Amino-2-(3-cyano-phenyl)-thieno[3,2-c]pyridine-7-carboxylic acid amide]
